Data published in patent US8063104B2, “Guanidine derivatives as inhibitors of DDAH” (UCL Business PLC, priority 2004, dated 2011).
Several values for one entry are separate records, joined by “and”; a condition that tells them apart may be missing. Equal values may be shown once.

How the values were obtained:
DDAH = molecular target: T1, DDAH (Rattus norvegicus, UniProt O08557); assay: DDAH activity assay (rat kidney lysate, [14C]L-NMMA to [14C]citrulline); format: biochemical; details: 1 mM compound, [14C]L-NMMA 1 μmol/L, 1 h 37° C.
T1 construct: Rat kidney was homogenized in PBS; from tissue; host or cells: rat kidney homogenate, high-speed supernatant
T1 sequence (O08557 2-285 limits assumed): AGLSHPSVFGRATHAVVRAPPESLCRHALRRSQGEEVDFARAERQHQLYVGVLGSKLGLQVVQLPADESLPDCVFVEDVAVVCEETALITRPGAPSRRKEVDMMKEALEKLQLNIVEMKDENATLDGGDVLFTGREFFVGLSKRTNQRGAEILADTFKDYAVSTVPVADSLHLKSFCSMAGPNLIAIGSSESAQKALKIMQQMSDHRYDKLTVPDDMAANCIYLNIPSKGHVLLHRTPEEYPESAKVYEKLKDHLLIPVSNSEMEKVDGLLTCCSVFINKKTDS
Method: Rat kidney was homogenized in PBS containing PMSF 1 mM, leupeptin 5 μg/ml, pepstatin 5 μg/ml, chymostatin 5 μg/ml, and the lysate was centrifuged (4000 rpm. 20 min then supernatant further centrifuged for 40000 rpm, 30 min, 4° C.). The supernatants were analyzed for DDAH activity; [^14[…]) was added to the cell lysates (final volume 100 μl) and incubated for 1 h at 37° C. Dowex resin (0.5 ml) at neutral pH was immediately added to samples to terminate the reaction and bind unmetabolized L-NMMA. [^14C]Citrulline formation was determined by scintillation counting (Hewlett Packard).

iNOS = molecular target: T2, iNOS (Mus musculus, UniProt P29477); assay: iNOS activity Greiss assay in stimulated RAW cells; format: cell-based; details: Griess NOx, RAW cells stimulated 24 h with LPS/IFN and TNF, compound 0.5 mM, 550 nm; control 0.367 ± 0.021
T2 construct: endogenous in cells; host or cells: RAW cells stimulated with LPS/IFN and TNF
Method: RAW cells were stimulated for 24 h with LPS/IFN and TNF, in the presence of the DDAH inhibitor compounds (0.5 mM). Levels of NOx secreted into the media by the cells were determined by Griess assay: Greiss reagent [1:1 sulfanilamide ([…]) in ortho-phosphoric acid (50%) and N-(1-napthyl)ethylenediamine dihydrochloride (1%)] was added as 100 μl volume to 100 μl cell culture media and the plate was read at 550 nm and analysed in relation to sodium nitrite and nitrate standards.

eNOS = eNOS assay ([14C]arginine conversion); format: biochemical; details: eNOS activity
Method: Compounds to be tested were added to NOS assay buffer (HEPES 50 mM pH 7.2, FAD 5 μM, FMN 5 μM, BH4 10 μM, NADPH 1 mM, DTT 0.5 mM, CaCl2 1 mM, MgCl2 1 mM, calmodulin 50 nM, [^14C] arginine 100 μM) in a final volume of 100 μl and the reaction was initiated by addition of eNOS (eNOS 3.3. U/reaction, Alexis Biochemicals). Reactions were incubated for 1 h at 37° C. and the reaction was terminated by the addition of Dowex pH 5.5 (0.85 ml) to each tube. Tubes were vortexed and microfuged <12000 g, 5 min. 100 μl of the Dowex supernatant was added to 5 ml scintillation cocktail and was counted in a scintillation counter (Hewlett Packard). The compounds were tested at 1 mM and 0.1 mM concentrations. Activity is expressed as % of control where control contained no inhibitor, n=4. The DDAH inhibitors of the present invention tested had no significant effect on eNOS activity.

[1] = In vivo study: serum dimethylarginine levels after i.v. bolus; design: species or system Male Wistar rats; details: 4 hours after 60 mg/kg i.v. bolus, control 1.81 ± 0.23
Method: Male Wistar rats (250-300 g; Charles River, Margate, Kent, UK) were anaesthetised using Isoflurane. The jugular vein was cannulated. Animals were injected intravenously with a bolus dose of inhibitor (60 mg/kg) or saline. Anaesthesia was maintained for 4 hours at the end of which blood was obtained via cardiac puncture for the determination of serum dimethylarginine levels. [All animals received care in compliance with The British Home Office Regulations and Principles of Laboratory Animal Care. (Project licenses PPL/5344, PPL/4824, PPL 70/5580)]
SDMA is not a substrate for DDAH and the levels of SDMA would be expected to be the same of the treated and the control animals, and this was the case. Since there is a great deal of variability of the “normal” ADMA and SDMA level, it is useful to measure the ratio of ADMA and SDMA in each animal to provide a reliable indicator of the relative changes of these to substances.

[2] = test system: zymosan-induced peritonitis; assay: Zymosan-induced peritonitis, C57/Blk6 mice; format: in vivo
Method: (§1) The effects of a DDAH inhibitor on zymosan-induced peritonitis were tested in two different strains of mice. C57/Blk6 or TO mice, male 8-10 weeks were placed in a heat box for 10 mins at 38° C., and treated with 60 mg/kg of SR291 [NA-(2-methoxyethyl)-L-arginine methyl ester] i.v. 30 mins later they were given 1 mg of zymosan i.p. A second dose of SR291 (60 mg/kg) was administered 2 h later and after 4 h mice were anesthetised with isofluorane and blood withdrawn by cardiac puncture. Mice were sacrificed and had 2 mls of ice cold PBS injected into their peritoneal cavity, the cavity was then gently massaged and cut open, the peritoneal washout was harvested and put on ice. Blood was spun down at 400 g, 10 mins at 4° C. The cells were spun at 4000 rpm for 5 mins at 4° C. Plasma was removed from the blood and frozen at −80° C. The exudates from the washout were removed and frozen at −80° C., the cell pellet was resuspended in 1 ml ice cold PBS and were counted on a haemocytometer. The cells were spun as before, the supernatant discarded and the cells frozen at −80° C. Polymorphonuclear (PMN) cell infiltrate into the peritoneal cavity was used to measure inflammation. […] Taken off at 4 hrs. […] Taken off at 4 hrs.

[3] = test system: zymosan-induced peritonitis; assay: Zymosan-induced peritonitis, TO mice; format: in vivo; details: for cells 10^6/ml (individual animals 1-6): 60 mg/kg iv −30 min, +2 hrs, taken off at 4 hrs, listed as SR291, 60 mg/kg
Method: as §1

rat aortic rings [4] = assay: NOx production from endotoxin-treated rat aortic rings in static culture; format: cell-based; details: endotoxin 10 μg/ml, compound 500 μM
Method: FIG. 1 is a graph showing the nitrate and nitrite (NOx) production from isolated rat aortic rings in static culture in the presence of either media alone (untreated); media plus 10 μg/ml LPS (LPS) and media plus 10 μg/ml LPS and 500 μM SR257 or SR291. n≧6; *p<0.0001 One Way ANOVA plus Bonferroni post hoc correction;
Effects of two compounds SR 291 [N^G-(2-methoxyethyl)-L-arginine methyl ester] and SR 257 [N^G-(2-methoxyethyl)-L-arginine]) have been tested in a series of models of endotoxin-induced vascular dysfunction. Treatment of rat aortic vascular rings in static culture with endotoxin (10 μg/ml) led to an increase in generation of nitric oxide (as measured by nitrite and nitrate). This increase in NO was prevented by treatment with 500 μM SR257 or SR291.

rat aortic rings [5] = assay: Endotoxin-induced hyporeactivity to vasoconstrictors in rat aortic rings; format: cell-based; details: endotoxin 0.3 μg/ml, compound 100 μM and 200 μM
Method: Incubation of rat aortic rings with endotoxin (0.3 μg/ml) led to the development of hyporeactivity to vasoconstrictors.

[6] = Endotoxin-induced fall in systemic blood pressure in anaesthetized rat; format: in vivo; details: endotoxin 40 mg/kg, infusion 30 mg/kg/hr
Method: Effects of intervention after 2-3 hours (when blood pressure had fallen to 80% of baseline pre LPS blood pressure) with 30 mg/kg/hr infusion of SR291; Injection of endotoxin (40 mg/kg) into rats caused a progressive fall in systemic BP. The decline was halted by infusion of 30 mg/kg/hr SR291.

RAW cells = assay: Cell viability assay (MTT) in RAW cells
Method: RAW cells were treated with DDAH inhibitor compound (0.5 mM) in complete media for 24 h; cells were subsequently assessed for viability by MTT assay. Cell culture media was removed from cells and replaced with 200 μl complete media containing 3-[4,5-Dimethylthiazol-2-yl]-2,5-diphenyltetrazolium bromide (MTT 0.2 mg/ml) for 30 min at 37° C. MTT containing media was removed and 100 ul DMSO was added to solubilize cells; after shaking, plates were read at OD550 nm.

With `COCCN=C(N)NCCCC(N)C(=O)OC` [Example 28, N^G-(2-Methoxyethyl)-L-arginine methyl ester] the inhibition at 1000 µM (DDAH) was 83%, the “OD units drug ± sd” value (iNOS) was 0.325 ± 0.009 OD units and the “% of control ± sd” value (eNOS; 0.1 mM compound) was 120.8 ± 17.80 [2] % of control. For the same molecule, the “% of control ± sd” value (eNOS; 1 mM compound) was 112.5 ± 27.47 [4] % of control, the “ADMA:SDMA ± sd” value [1] was 2.73 ± 0.44 and the “cells million/ml (peritoneal washout, individual animals 1-5)” value ([2]; C57 male 8-10 weeks, 60 mg/kg iv −30 min, taken off at 4 hrs, listed as SR291, 60 mg/kg) was 3 million/ml and 4 million/ml and 4.5 million/ml and 6.5 million/ml and 9 million/ml. For the same molecule, the “cells 10^6/ml, mean” value ([2]; combination of two datasets for the C57 mice, saline 6.7455) was 4.2 10^6/ml, the “cells million/ml, mean” value ([2]; cumulative of Table 6 dataset, saline 9.1) was 5.4 million/ml and the “PMN infiltrate into the peritoneal cavity” value ([2]; three separate experiments, 8-12 mice each, C57/Blk6 or TO mice, 60 mg/kg i.v.) was “significantly reduced”. The “cells 10^6/ml (individual animals 1-6)” value ([3]; TO mice male 8-10 weeks, first study) was 3.05 10^6/ml and 3.35 10^6/ml and 3.2 10^6/ml and 1.4 10^6/ml and 3.9 10^6/ml and 4.3 10^6/ml, the “cells 10^6/ml (individual animals 1-6)” value ([3]; TO mice, second study) was 4.3 10^6/ml (2×) and 4.6 10^6/ml and 4.85 10^6/ml and 5.2 10^6/ml and 3.9 10^6/ml and the “cells 10^6/ml, mean” value ([3]; cumulative of Table 9 dataset, saline 4.783333) was 3.2 10^6/ml. The “cells 10^6/ml, mean” value ([3]; cumulative of Table 11 dataset, saline 6.125) was 4.525 10^6/ml, the “cells 10^6/ml, mean” value ([3]; cumulative of the two datasets of Tables 9 and 11, saline 5.454167) was 3.8625 10^6/ml and the “endotoxin-induced increase in NO (nitrite and nitrate)” value (rat aortic rings [4]) was “prevented”. The “endotoxin-induced hyporeactivity to vasoconstrictors” value (rat aortic rings [5]) was “reversed dose dependently”, the “progressive fall in systemic BP” value [6] was “halted” and the “OD units drug ± sd” value (RAW cells) was 2.41 ± 0.10 OD units.
